Results on 10 compounds are retold here after PMC7531004, “Discovery of gramicidin A analogues with altered activities by multidimensional screening of a one-bead-one-compound library” (Nature Communications, 2020).

Where a SMILES comes first, the peptide text is derived from it. [ ]: non-standard residue; d: D form. The star is where a group is joined. NHCH2CH2OH = OCCN*; For = O=C*

Data set [1] has as its system Streptococcus pyogenes SSI-9. Briefly: Antibacterial activity assay of bead-derived peptides (three concentrations). To be noted: S. pyogenes, bead-derived peptide solution, three concentrations. More on the design: key: +++: inhibition by the 640-fold diluted peptide solution; ++: inhibition by the 160-fold diluted solution; +: inhibition by the 40-fold diluted solution; -: no inhibition. The format is cell-based. The gist of the method: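 Bead-derived library peptide stocks in DMSO were tested undiluted and after 4- and 16-fold DMSO dilution against S. pyogenes SSI-9 (2 × 10^5 CFU/well) in cation-adjusted Mueller Hinton Broth with 5% laked horse blood. After 18 h at 37 °C, wells were scored for precipitation of grown cells.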

For data set [2] the following is noted: cell viability/%. The gist of the method: (§1)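 First, library peptide stocks are diluted 250-fold in RPMI1640 with 10% heat-inactivated FBS. Next, they are mixed with P388 cells to give 1 × 10^4 cells/mL and incubated 92 h at 37 °C, 5% CO2. Finally, viability (%) is scored by WST-1 absorbance at 415 nm.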
Data set [3] in a line: H+/Na+ transport assay of bead-derived peptides (one-point).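 Further: relative to parent gramicidin A activity set to 1.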 The following applies: bead-derived peptide solution, EYPC/EYPG LUVs. Set-up: key: relative activity; mean of two control wells = 1.00. The format is biochemical. The gist of the method:
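Values are normalized fluorescence, with Triton X-100 defining 100% and untreated LUVs 0%, and the two control wells averaging 1.00. Vesicles carried 1.0 mM pyranine and included egg yolk phosphatidylglycerol. Peptides were incubated with them 30 min at room temperature.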

In data set [4] the test system is P388 mouse leukemia cells. The following applies: 92 h. The gist of the method:
as §1

In the case of `CC(C)C[C@@H](NC(=O)[C@H](C)NC(=O)CNC(=O)[C@@H](NC=O)C(C)C)C(=O)N[C@@H](C)C(=O)N[C@H](CC(C)C)C(=O)N[C@H](C(=O)N[C@@H](C(=O)N[C@@H](Cc1c[nH]c2ccccc12)C(=O)N[C@H](CC(C)C)C(=O)N[C@@H](Cc1c[nH]c2ccccc12)C(=O)N[C@@H](C(=O)N[C@@H](Cc1c[nH]c2ccccc12)C(=O)N[C@@H](C(=O)N[C@@H](Cc1c[nH]c2ccccc12)C(=O)NCCO)C(C)C)[C@H](C)O)C(C)C)C(C)C` [compound 65] (For-VGA[dL]A[dL]V[dV]W[dL]W[dT]W[dV]W-NHCH2CH2OH), the antibacterial activity result in data set [1] is “+”. The viability – broadly, the share of living cells, or the viability signal relative to a control – in data set [2] stood at 100%. Also, the “H+/Na+ transport activity normalized against the value of 1 (1.00)” value (from here on “H+/Na+ transport activity normalized”) in data set [3] is given as 1.08.
The corresponding values for `CC(C)C[C@@H](NC(=O)[C@H](Cc1c[nH]c2ccccc12)NC(=O)[C@@H](CC(C)C)NC(=O)[C@@H](NC(=O)[C@H](NC(=O)[C@H](C)NC(=O)[C@H](NC(=O)[C@H](C)NC(=O)CNC(=O)[C@@H](NC=O)C(C)C)C(C)C)C(C)C)C(C)C)C(=O)N[C@@H](Cc1c[nH]c2ccccc12)C(=O)N[C@@H](C(=O)N[C@@H](Cc1c[nH]c2ccccc12)C(=O)N[C@@H](C(=O)N[C@@H](Cc1c[nH]c2ccccc12)C(=O)NCCO)C(C)C)[C@H](C)O` [compound 79] (For-VGA[dV]A[dV]V[dL]W[dL]W[dT]W[dV]W-NHCH2CH2OH) are “++”, 100% and 1.14.
As to `CC(C)C[C@@H](NC(=O)[C@H](C)NC(=O)CNC(=O)[C@@H](NC=O)C(C)C)C(=O)N[C@@H](C)C(=O)N[C@@H](C(=O)N[C@H](C(=O)N[C@@H](C(=O)N[C@@H](Cc1c[nH]c2ccccc12)C(=O)N[C@H](CC(C)C)C(=O)N[C@@H](Cc1c[nH]c2ccccc12)C(=O)N[C@@H](C(=O)N[C@@H](Cc1c[nH]c2ccccc12)C(=O)N[C@@H](C(=O)N[C@@H](Cc1c[nH]c2ccccc12)C(=O)NCCO)C(C)C)[C@H](C)O)C(C)C)C(C)C)C(C)C` [compound 87] (For-VGA[dL]A[dV]V[dV]W[dL]W[dT]W[dV]W-NHCH2CH2OH), the antibacterial activity entry in data set [1] is listed as “++”. For the same compound, the viability in data set [2] stood at 100%. For the same compound, in data set [3], the “H+/Na+ transport activity normalized” value is 1.12.
Take `CC(C)C[C@@H](NC(=O)[C@H](Cc1c[nH]c2ccccc12)NC(=O)[C@@H](CC(C)C)NC(=O)[C@@H](NC(=O)[C@H](NC(=O)[C@H](C)NC(=O)[C@H](NC(=O)[C@H](C)NC(=O)CNC(=O)[C@@H](NC=O)C(C)C)C(C)C)C(C)C)C(C)C)C(=O)N[C@@H](Cc1c[nH]c2ccccc12)C(=O)N[C@@H](C(=O)N[C@@H](Cc1c[nH]c2ccccc12)C(=O)N[C@@H](C(=O)N[C@@H](Cc1c[nH]c2ccccc12)C(=O)NCCO)C(C)C)C(C)C` [compound 100] (For-VGA[dV]A[dV]V[dL]W[dL]W[dV]W[dV]W-NHCH2CH2OH): in data set [1], the antibacterial activity result is “++”. In addition, the viability in data set [2] was found to be 9.5%. For the same compound, the “H+/Na+ transport activity normalized” value in data set [3] turned out to be 1.18.
In the case of `CC(C)C[C@@H](NC(=O)[C@H](C)NC(=O)[C@H](NC(=O)[C@H](C)NC(=O)CNC(=O)[C@@H](NC=O)C(C)C)[C@H](C)O)C(=O)N[C@H](C(=O)N[C@H](CC(C)C)C(=O)N[C@@H](Cc1c[nH]c2ccccc12)C(=O)N[C@@H](C(=O)N[C@@H](Cc1c[nH]c2ccccc12)C(=O)N[C@H](CC(C)C)C(=O)N[C@@H](Cc1c[nH]c2ccccc12)C(=O)N[C@@H](C(=O)N[C@@H](Cc1c[nH]c2ccccc12)C(=O)NCCO)C(C)C)C(C)C)C(C)C` [compound 102] (For-VGA[dT]A[dL]V[dL]W[dV]W[dL]W[dV]W-NHCH2CH2OH), the antibacterial activity entry in data set [1] is reported as “-”. In data set [2], this compound came in with a viability of 100%. In data set [3], the “H+/Na+ transport activity normalized” value was determined as 1.09.
`CC(C)C[C@@H](NC(=O)[C@H](C)NC(=O)CNC(=O)[C@@H](NC=O)C(C)C)C(=O)N[C@@H](C)C(=O)N[C@@H](C(=O)N[C@H](C(=O)N[C@H](CC(C)C)C(=O)N[C@@H](Cc1c[nH]c2ccccc12)C(=O)N[C@H](CC(C)C)C(=O)N[C@@H](Cc1c[nH]c2ccccc12)C(=O)N[C@@H](C(=O)N[C@@H](Cc1c[nH]c2ccccc12)C(=O)N[C@@H](C(=O)N[C@@H](Cc1c[nH]c2ccccc12)C(=O)NCCO)[C@H](C)O)C(C)C)C(C)C)[C@H](C)O` [compound 113] (For-VGA[dL]A[dT]V[dL]W[dL]W[dV]W[dT]W-NHCH2CH2OH): the antibacterial activity entry in data set [1] was “-”. In addition, the viability in data set [2] stood at 100%. Moreover, in data set [3], the “H+/Na+ transport activity normalized” value is reported as 1.00.
In the case of `CC(C)C[C@@H](NC(=O)[C@H](C)NC(=O)[C@H](NC(=O)[C@H](C)NC(=O)CNC(=O)[C@@H](NC=O)C(C)C)C(C)C)C(=O)N[C@H](C(=O)N[C@H](CC(C)C)C(=O)N[C@@H](Cc1c[nH]c2ccccc12)C(=O)N[C@H](CC(C)C)C(=O)N[C@@H](Cc1c[nH]c2ccccc12)C(=O)N[C@H](CC(C)C)C(=O)N[C@@H](Cc1c[nH]c2ccccc12)C(=O)N[C@@H](C(=O)N[C@@H](Cc1c[nH]c2ccccc12)C(=O)NCCO)[C@H](C)O)C(C)C` [compound 129] (For-VGA[dV]A[dL]V[dL]W[dL]W[dL]W[dT]W-NHCH2CH2OH), the antibacterial activity entry in data set [1] is “+”. In addition, the viability in data set [2] is 100%. For the same compound, in data set [3], the “H+/Na+ transport activity normalized” value is recorded as 1.05.
Turning to `CC(C)C[C@@H](NC(=O)[C@H](C)NC(=O)CNC(=O)[C@@H](NC=O)C(C)C)C(=O)N[C@@H](C)C(=O)N[C@@H](C(=O)N[C@H](C(=O)N[C@@H](C(=O)N[C@@H](Cc1c[nH]c2ccccc12)C(=O)N[C@H](CC(C)C)C(=O)N[C@@H](Cc1c[nH]c2ccccc12)C(=O)N[C@H](CC(C)C)C(=O)N[C@@H](Cc1c[nH]c2ccccc12)C(=O)N[C@@H](C(=O)N[C@@H](Cc1c[nH]c2ccccc12)C(=O)NCCO)C(C)C)[C@H](C)O)C(C)C)C(C)C` [compound 13268] (For-VGA[dL]A[dV]V[dT]W[dL]W[dL]W[dV]W-NHCH2CH2OH), in data set [1], the antibacterial activity entry was “+”. The compound also had a cell viability/% in data set [4] of 100.0%. In addition, the “H+/Na+ transport activity normalized” value in data set [3] came to 1.03.
`CC(C)C[C@@H](NC(=O)[C@H](C)NC(=O)CNC(=O)[C@@H](NC=O)C(C)C)C(=O)N[C@@H](C)C(=O)N[C@H](CC(C)C)C(=O)N[C@H](C(=O)N[C@@H](C(=O)N[C@@H](Cc1c[nH]c2ccccc12)C(=O)N[C@H](CC(C)C)C(=O)N[C@@H](Cc1c[nH]c2ccccc12)C(=O)N[C@@H](C(=O)N[C@@H](Cc1c[nH]c2ccccc12)C(=O)N[C@@H](C(=O)N[C@@H](Cc1c[nH]c2ccccc12)C(=O)NCCO)C(C)C)[C@H](C)O)C(C)C)C(C)C` [compound 13273] (For-VGA[dL]A[dL]V[dV]W[dL]W[dT]W[dV]W-NHCH2CH2OH): the antibacterial activity entry in data set [1] was “-”. In data set [4], this compound came in with a cell viability/% of 100.0%. The “H+/Na+ transport activity normalized” value in data set [3] turned out to be 1.05.
On the same counts, the results for `CNC(=O)C[C@@H](NC(=O)[C@H](Cc1c[nH]c2ccccc12)NC(=O)[C@@H](CC(C)C)NC(=O)[C@H](Cc1c[nH]c2ccccc12)NC(=O)[C@H](NC(=O)[C@H](Cc1c[nH]c2ccccc12)NC(=O)[C@H](NC(=O)[C@@H](NC(=O)[C@@H](CC(C)C)NC(=O)[C@H](C)NC(=O)[C@H](NC(=O)[C@H](C)NC(=O)CNC(=O)[C@@H](NC=O)C(C)C)C(C)C)C(C)C)C(C)C)C(C)C)C(=O)N[C@@H](Cc1c[nH]c2ccccc12)C(=O)NCCO` [compound 13317] (For-VGA[dV]A[dL]V[dV]W[dV]W[dL]W[dD](NHMe)W-NHCH2CH2OH) are “-”, 100.0% and 1.04.
